From patent publication US11199497B2, “Fluorescent compounds as sensing agents” (OHIO NORTHERN UNIVERSITY, priority 2016, dated 2021)

Experiments:
[1] = Shift in emission spectrum on exposure to varying amounts of FeCl3; details: for red-shift in peak emission wavelength / Fe^3+ ions at which shift in emission spectrum is saturated: FeCl3; for total red-shift in peak emission wavelength: FeCl3, at saturation
Experimental: Two substituted chromones (Compound 11 and Compound 20) were dissolved in methanol and exposed to varying amounts of FeCl3 (i.e., Fe^3+). FIG. 4 illustrates the shift in emission spectrum of Compound 11 with increasing amounts of Fe^3+ ions. With about 10 equivalents of Fe^3+ ions, the shift in emission spectrum is saturated, with a total of about a 30 nm red-shift in peak emission wavelength. FIG. 5 illustrates the shift in emission spectrum of Compound 20 with increasing amounts of Fe^3+ ions. With about 10 equivalents of Fe^3+ ions, the shift in emission spectrum is saturated, with a total of about a 50 nm red-shift in peak emission wavelength.
Compound 11 was dissolved in various solvents and then exposed to varying amounts of FeCl3 (i.e., Fe^3+). […]

[2] = Emission spectrum on exposure to varying amounts of (NH4)2Fe(SO4)2.6H2O
Experimental: Compound 11 was dissolved in methanol and then exposed to varying amounts of FeCl3 (i.e., Fe^3+) or (NH4)2Fe(SO4)2.6H2O (i.e., Fe^2+). […] Therefore, Compound 11 may be used to detect Fe^3+ while in the presence of Fe^2+.

[3] = Emission spectrum on exposure to varying amounts of Pb(NO3)2 in different solvents
Experimental: Compound 20 was dissolved in methanol and then exposed to varying amounts of Pb(NO3)2 (i.e., Pb^2+). […] Therefore, a kit, method, system, or the like may utilize a specific solvent system for detection of lead or other ions. Alternatively, and especially where the metal ion concentration is unknown, a kit, method, system, or the like may utilize a series of solvent systems in parallel to determine a concentration of metal ions.
A 5 μM sample of Compound 25 in 3:1 tetrahydrofuran:methanol or 2:1 tetrahydrofuran:methanol was prepared and exposed to varying amounts of Pb(NO3)2 (i.e., Pb^2+) dissolved in deionized water.

[4] = Visual detection limit of Pb(NO3)2 (color change blue to green); details: 5 μM compound in 3:1 tetrahydrofuran:methanol, Pb(NO3)2 in deionized water
Experimental: The detection limit Pb(NO3)2 (i.e., Pb^2+) for Compound 25 in 3:1 tetrahydrofuran:methanol was tested by exposing samples of 5 μM Compound 25 to ever decreasing concentrations of Pb(NO3)2 dissolved in deionized water.
A 40 mM solution of Pb(NO3)2 (i.e., Pb^2+) was prepared in tap water and then diluted with 3:1 tetrahydrofuran:methanol to a lead concentration of 133 μM. The resultant sample was added to solutions of 5 μM sample of Compound 25 in 3:1 tetrahydrofuran:methanol. […] This example illustrates that the lead detection can be performed using tap water, which includes a variety of other ions.

[5] = Ion selectivity, visual inspection when excited at 365 nm; details: 3:1 tetrahydrofuran:methanol
Experimental: Compound 25 was dissolved in 3:1 tetrahydrofuran:methanol and then exposed to varying amounts of Zn/SO4 (i.e., Zn^2+), (NH4)2Fe(SO4)2.6H2O (i.e., Fe^2+), Fe2O3 (i.e., Fe^3+), CuSO4 (i.e., Cu^2+), or Pb(NO3)2 (i.e., Pb^2+) each in deionized water. Upon visual inspection when excited at 365 nm, the sample exposed to Pb^2+turned green while all other samples remained blue.

[6] = Extraction of lead from water with octanol and triethylamine; details: 3 mM Pb(NO3)2 in deionized water, 1 equivalent triethylamine
Experimental: A 3 mM Pb(NO3)2 sample was prepared in deionized water and Compound 25 was added to give a green fluorescence. The lead was then extracted from the water using either 1-octanol or 2-octanol each with 1 equivalent (relative to Compound 25) of triethylamine, which turned the octanol portion green. After washing thrice with 1-octanol, 99% of the Pb^2+had been extracted from the water. After washing twice with 2-octanol, 83% of the Pb^2+had been extracted from the water.

[7] = Detection of lead in methanol extract of soil sample; details: methanol filtrate diluted in 3:1 tetrahydrofuran:methanol
Experimental: A lead-free soil sample was collected, placed into a Buchner funnel, and soaked with 1 mL of 0.15 M Pb(NO3)2 in water to introduce lead to the soil. As a control sample, the same was performed with the lead-free soil without exposure to Pb^2+. After soaking, the soil samples were washed with 50 mL of methanol. A sample from each filtrate was diluted in 3:1 tetrahydrofuran:methanol and exposed to Compound 25. […] This example illustrates that the substituted chromones described herein may be useful in detecting ions from soil extracts.

COC(=O)C(C)(C)C1Oc2ccc(OC)cc2C(=O)/C1=C\O (centres unmarked) [Compound 11, (Z)-methyl-2-(3-(hydroxymethylene)-6-methoxy-4-oxochroman-2-yl)-2-methylpropanoate]
red-shift in peak emission wavelength ([1]; 1:1 methanol:water): still exhibits a red-shift in peak emission wavelength | intensity change for the peak emission wavelength with increasing metal ion concentration ([1]; methanol (FIG. 4)): intensity decrease | Fe^3+ ions at which shift in emission spectrum is saturated ([1]; methanol): about 10 equivalents | shift of peak emission wavelength ([1]; methanol, FeCl3 (FIG. 4)): significant red-shift | total red-shift in peak emission wavelength ([1]; methanol): ~30 nm | red-shift in peak emission wavelength ([1]; polar aprotic solvents such as tetrahydrofuran, acetonitrile, acetone): did not exhibit an appreciable red-shift | red-shift in peak emission wavelength ([1]; polar protic solvents like water, methanol and mixtures thereof): exhibited an appreciable red-shift | intensity change for the peak emission wavelength with increasing metal ion concentration ([2]; methanol (FIG. 6)): intensity decrease | shift of peak emission wavelength ([2]; methanol, (NH4)2Fe(SO4)2.6H2O (FIG. 6)): does not exhibit appreciable shift

CCc1ccc2c(c1)C(=O)/C(=C\NS(=O)(=O)c1ccc(C)cc1)C(C(C)(C)C(=O)OC)O2 (centres unmarked) [Compound 20, (Z)-methyl 2-(6-ethyl-3-((4-methylphenylsulfonamido)meth-ylene)-4-oxochroman-2-yl)-2-methylpropanoate]
red-shift in peak emission wavelength ([1]; 1:1 methanol:water): does not | Fe^3+ ions at which shift in emission spectrum is saturated ([1]; methanol): about 10 equivalents | total red-shift in peak emission wavelength ([1]; methanol): ~50 nm | Pb^2+ at max shift in peak emission wavelength ([3]; 1:1 tetrahydrofuran:methanol): about 5 equivalents | Pb^2+ at max shift in peak emission wavelength ([3]; 3:1 tetrahydrofuran:methanol): about 3 equivalents | shift in peak emission wavelength ([3]; THF alone): no appreciable shift | Pb^2+ at which shift in peak emission wavelength maxes out ([3]; methanol): 10 equivalents | change of peak emission wavelength in the presence of Pb^2+ ([3]; methanol, 1:1 and 3:1 tetrahydrofuran:methanol, tetrahydrofuran (FIGS. 7-10), degree depends on solvent): red-shift and intensity decrease | shift in peak emission wavelength at 1 equivalent Pb^2+ ([3]; mixed tetrahydrofuran/methanol): does have an appreciable shift

COC(=O)C(C)(C)C1Oc2ccc(OC)cc2C(=O)/C1=C\NS(=O)(=O)c1ccc(OC)cc1 (centres unmarked) [Compound 25, (Z)methyl-2-(6-methoxy-3-(((4-methoxyphenyl)sulfonamido)methylene)-4-oxochroman-2-yl)-2-methylpropanoate]
visual change of fluorescence in the presence of Pb^2+ ([3]; 5 μM compound, 3:1 or 2:1 tetrahydrofuran:methanol): from blue to green | change of peak emission wavelength in the presence of Pb^2+ ([3]; 5 μM compound, 3:1 or 2:1 tetrahydrofuran:methanol, excitation 370 nm (FIGS. 11-12)): red-shift and intensity decrease | speed of color change observed [4]: almost instantaneous | fluorescence color of sample ([5]; (NH4)2Fe(SO4)2.6H2O in deionized water): remained blue | fluorescence color of sample ([5]; CuSO4 in deionized water): remained blue | fluorescence color of sample ([5]; Fe2O3 in deionized water): remained blue | fluorescence color of sample ([5]; Pb(NO3)2 in deionized water): turned green | fluorescence color of sample ([5]; Zn/SO4 in deionized water): remained blue | Pb^2+ extracted from the water ([6]; washing thrice with 1-octanol): 99% | Pb^2+ extracted from the water ([6]; washing twice with 2-octanol): 83% | color change with extract from soil sample exposed to Pb^2+ [7]: color change from blue to green
